According to US20080045521A1, “PHENYLALANINE DERIVATIVES” (AstraZeneca AB, priority 2006, published 2008):

Tests used:
[1] = target: T1, α5β1 integrin mediated adhesion of K562 cells (Homo sapiens, UniProt P05556+P08648); assay: In vitro cell adhesion assay (b): inhibition of adhesion of K562 cells to fibronectin fragment Fn9-10, crystal violet stain; type: cell-based; settings: for IC50: K562 cells on Fn9-10, geometric mean of the measured IC50 values, n = number of tests; for activity in the cell adhesion assay (b): K562 cells, result in words
T1 construct: host or cells: K562 human erythroleukaemia cells
Excerpt: (b) In Vitro Cell Adhesion Assay
The assay determined the ability of compounds to inhibit the α5β1 integrin mediated adhesion of K562 cells to the ligand, a fragment of human fibronectin. The human K562 erythroleukaemia cell line (LGC Promochem, Teddington, Middlesex, UK, Catalogue No. CCL-243) was routinely maintained in RPMI 1640 medium (Sigma-Aldrich Company Ltd, Gillingham, Dorset SP8 4XT, Catalogue No. R0883) containing 10% heat-inactivated foetal calf serum (PAA lab GmbH, Pasching, Austria Catalogue No. PAA-A15-043) and 1% glutamax-1 (Invitrogen Ltd. Paisley, UK Catalogue No. 35050-038) at 37° C. with 5% CO2 at densities between 1×10^5 and 1×10^6 cells/ml.
A DNA fragment encoding the domains 9-10 (amino-acids 1325-1509) of human fibronectin (Swiss-Prot Accession No. P02751) was isolated from cDNA libraries using standard molecular biology and PCR cloning techniques. The cDNA fragment was sub-cloned into a pT7#3.3 expression vector containing a GST-epitope tag (developed at AstraZeneca; Bagnall et al., Protein Expression and Purification, 2003, 27: 1-11), and the fragment termed Fn9-10. Following expression in E. coli, the expressed protein was purified using the GST-tag using standard purification techniques.
For adhesion assay, a 96-well flat bottomed plate (Greiner Bio one ltd., Gloucester GL10 3 SX Catalogue No. 655101) was coated overnight at 4° C. with 100 μl of 20 μg/ml Fn9-10 ligand in Dulbecco's PBS (Gibco#14190-94). The plate was then washed twice with 200 μl of PBS and blocked with 100 μl of 3% BSA (SigmaA7888) in PBS for 1 hour at 37° C. The plates were then washed again 3 times with 200 μl of PBS and left empty.
Test compounds were prepared as 10 mM stock solutions in DMSO (Sigma-Aldrich Company Ltd, Gillingham, Dorset SP8 4XT Catalogue No. 154938) and serially diluted with HBSS (Hanks Buffered Salt solution (Gibco Catalogue No. 14170-088)/2% DMSO to give a range of test concentrations at twice required final concentration. Aliquots (50 μl) of each compound dilution were placed into each well of the Fn9-10 coated plates. Each plate also contained control wells: maximum adhesion signal was created using wells containing 50 μl HBSS/2% DMSO, and minimum signal corresponding to no adhesion was created using wells containing 50 μl HBSS/2% DMSO /20 mM EDTA (Sigma Catalogue No. E7889). […]
After fixation, the ethanol was flicked off to waste and 100 μl of 0.1% Crystal violet stain was added to each well, and incubated at ambient temperature for 15 minutes. […] Finally, 100 μl of deionised water was added to each well and the absorbance was determined at 590 nm on a spectrophotometer. The minimum value was subtracted from all values, and the absorbance signal was plotted against compound concentration to generate IC50 data.

recombinant human α5β1 = recombinant human α5β1 (Homo sapiens, UniProt P05556+P08648); assay: In vitro binding assay (a): inhibition of binding of α5β1 integrin to a fragment of human fibronectin (Fn9-10), Origen electrochemiluminescence; settings: geometric mean of the measured IC50 values; n = number of tests
Excerpt: (a) In Vitro Binding Assay
The assay determined the ability of compounds to inhibit binding of α5β1 integrin to a cognate ligand, a fragment of human fibronectin. The assay used Origen technology (IGEN International) to measure the compound activity. Briefly, α5β1 integrin was coated onto epoxy-paramagnetic beads (Dynal Biotech UK, Bromborough, Wirral, CH62 3QL, UK, Catalogue No 140.11) and biotinylated-fibronectin ligand was coupled to strepatividin labeled Tag-NHS-Ester (BioVeris Corporation, Witney, Oxfordshire, OX28 4GE, UK, Catalogue No 110034). The ruthenium-labeled tag emits an electrochemiluminescence signal upon stimulation which is detected by the Origen reader. […]
20 μg of recombinant human α5β1 was coated onto 4×10(7) epoxy-paramagnetic beads according to manufacturers instructions at 4° C. for 24 hours. Integrin coating and corresponding activity was subsequently measured for each batch but typically, 25 ng of coated protein was used per assay well. […]
For the assay, 25 ng (20 ul) of a5b 1-bead suspension and 40 μl of the Fn9-10/Tag pre-incubated solution were added to each well containing 20 μl of compound or control solution. Assay plates were then incubated at room temperature for a minimum of 6 hours before being analysed on an Origen plate reader. […]

T1 sequence (P08648 42-894 limits assumed): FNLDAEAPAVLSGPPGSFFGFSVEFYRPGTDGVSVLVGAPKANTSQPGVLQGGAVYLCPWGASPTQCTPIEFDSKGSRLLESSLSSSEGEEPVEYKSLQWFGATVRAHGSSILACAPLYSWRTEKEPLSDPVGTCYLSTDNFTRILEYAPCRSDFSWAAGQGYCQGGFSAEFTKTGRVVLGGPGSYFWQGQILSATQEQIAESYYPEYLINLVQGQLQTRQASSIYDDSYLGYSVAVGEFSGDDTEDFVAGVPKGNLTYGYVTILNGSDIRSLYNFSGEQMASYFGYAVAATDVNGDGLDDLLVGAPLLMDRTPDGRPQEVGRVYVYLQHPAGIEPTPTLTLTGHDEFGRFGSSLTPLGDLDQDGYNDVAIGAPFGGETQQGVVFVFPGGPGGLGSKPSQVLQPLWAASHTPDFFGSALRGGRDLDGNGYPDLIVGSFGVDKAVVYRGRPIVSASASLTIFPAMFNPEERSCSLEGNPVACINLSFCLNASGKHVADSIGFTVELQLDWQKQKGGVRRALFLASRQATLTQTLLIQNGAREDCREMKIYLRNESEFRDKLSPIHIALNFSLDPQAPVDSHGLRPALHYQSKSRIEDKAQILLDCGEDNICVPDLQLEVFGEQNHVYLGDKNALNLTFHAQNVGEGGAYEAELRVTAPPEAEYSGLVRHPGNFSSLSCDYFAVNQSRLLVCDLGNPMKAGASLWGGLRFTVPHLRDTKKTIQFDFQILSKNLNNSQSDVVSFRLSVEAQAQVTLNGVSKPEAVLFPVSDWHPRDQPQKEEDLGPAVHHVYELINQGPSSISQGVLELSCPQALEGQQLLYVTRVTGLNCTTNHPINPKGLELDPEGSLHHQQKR
T1 sequence (P08648 895-1049 partner limits assumed): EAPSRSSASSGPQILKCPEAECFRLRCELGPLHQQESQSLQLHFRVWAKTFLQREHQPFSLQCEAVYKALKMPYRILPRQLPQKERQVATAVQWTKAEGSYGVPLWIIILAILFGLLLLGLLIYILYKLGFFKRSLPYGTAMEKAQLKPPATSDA
T1 sequence (P05556 21-798): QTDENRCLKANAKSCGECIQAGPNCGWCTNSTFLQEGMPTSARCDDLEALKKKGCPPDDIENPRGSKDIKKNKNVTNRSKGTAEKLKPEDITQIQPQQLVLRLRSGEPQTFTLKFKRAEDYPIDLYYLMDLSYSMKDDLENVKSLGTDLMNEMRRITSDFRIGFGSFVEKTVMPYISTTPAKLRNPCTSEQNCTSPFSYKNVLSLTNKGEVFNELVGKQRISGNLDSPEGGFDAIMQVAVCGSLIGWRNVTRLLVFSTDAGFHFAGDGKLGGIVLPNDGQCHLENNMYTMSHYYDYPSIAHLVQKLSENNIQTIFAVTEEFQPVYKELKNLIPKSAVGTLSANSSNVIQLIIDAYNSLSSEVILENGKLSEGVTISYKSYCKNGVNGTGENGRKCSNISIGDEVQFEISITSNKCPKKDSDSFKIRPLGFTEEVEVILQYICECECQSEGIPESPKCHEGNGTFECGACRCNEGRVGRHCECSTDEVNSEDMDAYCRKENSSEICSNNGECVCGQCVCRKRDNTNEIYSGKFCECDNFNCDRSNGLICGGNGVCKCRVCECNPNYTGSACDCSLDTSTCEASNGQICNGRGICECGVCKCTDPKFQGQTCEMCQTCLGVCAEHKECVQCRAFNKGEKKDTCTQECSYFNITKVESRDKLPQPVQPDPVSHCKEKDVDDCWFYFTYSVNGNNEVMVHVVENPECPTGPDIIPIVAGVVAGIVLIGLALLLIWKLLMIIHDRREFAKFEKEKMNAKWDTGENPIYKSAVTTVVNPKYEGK
recombinant human α5β1, sequence (P08648 42-1049): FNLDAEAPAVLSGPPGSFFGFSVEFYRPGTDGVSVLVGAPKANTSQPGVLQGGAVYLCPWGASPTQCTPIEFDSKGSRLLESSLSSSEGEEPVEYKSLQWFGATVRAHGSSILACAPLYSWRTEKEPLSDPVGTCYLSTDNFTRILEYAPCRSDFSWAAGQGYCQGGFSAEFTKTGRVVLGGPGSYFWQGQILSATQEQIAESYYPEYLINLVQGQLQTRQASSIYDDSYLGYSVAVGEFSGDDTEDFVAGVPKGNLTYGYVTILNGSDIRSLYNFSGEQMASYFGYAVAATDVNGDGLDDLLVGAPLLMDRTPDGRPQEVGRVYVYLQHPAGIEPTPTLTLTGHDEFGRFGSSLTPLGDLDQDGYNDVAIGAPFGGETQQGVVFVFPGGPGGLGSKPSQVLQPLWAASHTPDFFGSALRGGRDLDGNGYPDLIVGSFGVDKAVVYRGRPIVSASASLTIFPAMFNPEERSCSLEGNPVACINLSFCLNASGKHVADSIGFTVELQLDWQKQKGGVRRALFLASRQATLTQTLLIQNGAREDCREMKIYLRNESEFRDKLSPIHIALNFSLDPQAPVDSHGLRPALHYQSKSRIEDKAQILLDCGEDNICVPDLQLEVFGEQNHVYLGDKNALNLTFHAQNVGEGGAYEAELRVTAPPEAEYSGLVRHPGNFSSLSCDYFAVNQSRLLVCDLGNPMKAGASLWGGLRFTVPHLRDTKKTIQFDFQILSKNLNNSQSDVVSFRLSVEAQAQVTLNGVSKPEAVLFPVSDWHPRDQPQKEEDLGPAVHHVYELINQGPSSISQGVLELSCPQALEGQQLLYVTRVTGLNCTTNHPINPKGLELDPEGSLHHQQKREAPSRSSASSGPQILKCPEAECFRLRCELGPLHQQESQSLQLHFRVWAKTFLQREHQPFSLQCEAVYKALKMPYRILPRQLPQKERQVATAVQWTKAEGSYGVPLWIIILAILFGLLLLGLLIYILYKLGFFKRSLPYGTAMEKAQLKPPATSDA
recombinant human α5β1, sequence (P05556 21-798): as the sequence (P05556 21-798) above

Row | SMILES | IC50 [1] [nM] | IC50 (recombinant human α5β1) [nM] | activity in the cell adhesion assay (b) [1]
1 | O=C(N[C@@H](Cc1ccc(OCCc2ccc3c(n2)NCCC3)cc1)C(=O)O)c1c(Cl)cccc1Cl [Example 3, N-(2,6-dichlorobenzoyl)-O-[2-(5,6,7,8-tetrahydro-1,8-naphthyridin-2-yl)ethyl]-L-tyrosine] | 2 | 0.4 | 
2 | CNc1cccc(CCCc2ccc(C[C@H](NC(=O)c3c(Cl)cccc3Cl)C(=O)O)s2)n1 [Example 29, N-(2,6-dichlorobenzoyl)-3-(5-{3-[6-(methylamino)pyridin-2-yl]propyl}-2-thienyl)-L-alanine] | 31 | 2 | 
3 | O=C(N[C@@H](Cc1cccc(OCCCCNc2ccccn2)c1)C(=O)O)c1c(Cl)cccc1Cl [N-(2,6-dichlorobenzoyl)-3-[4-(pyridin-2-ylamino)butoxy]-L-phenylalanine] |  |  | low activity
4 | O=C(N[C@@H](Cc1cccc(OCCNc2ccccn2)c1)C(=O)O)c1c(Cl)cccc1Cl [N-(2,6-dichlorobenzoyl)-3-[2-(pyridin-2-ylamino)ethoxy]-L-phenylalanine] |  |  | low activity
